One experiment deals with T1, enkephalinase A (Rattus norvegicus, UniProt P07861).
T1 construct: from tissue; host or cells: Sprague-Dawley rat brain minus cerebellum; membrane pellet solubilised in 1% Triton X-100, DEAE Sephacel fraction eluting at 120-200 ml
T1 sequence (P07861 1-750): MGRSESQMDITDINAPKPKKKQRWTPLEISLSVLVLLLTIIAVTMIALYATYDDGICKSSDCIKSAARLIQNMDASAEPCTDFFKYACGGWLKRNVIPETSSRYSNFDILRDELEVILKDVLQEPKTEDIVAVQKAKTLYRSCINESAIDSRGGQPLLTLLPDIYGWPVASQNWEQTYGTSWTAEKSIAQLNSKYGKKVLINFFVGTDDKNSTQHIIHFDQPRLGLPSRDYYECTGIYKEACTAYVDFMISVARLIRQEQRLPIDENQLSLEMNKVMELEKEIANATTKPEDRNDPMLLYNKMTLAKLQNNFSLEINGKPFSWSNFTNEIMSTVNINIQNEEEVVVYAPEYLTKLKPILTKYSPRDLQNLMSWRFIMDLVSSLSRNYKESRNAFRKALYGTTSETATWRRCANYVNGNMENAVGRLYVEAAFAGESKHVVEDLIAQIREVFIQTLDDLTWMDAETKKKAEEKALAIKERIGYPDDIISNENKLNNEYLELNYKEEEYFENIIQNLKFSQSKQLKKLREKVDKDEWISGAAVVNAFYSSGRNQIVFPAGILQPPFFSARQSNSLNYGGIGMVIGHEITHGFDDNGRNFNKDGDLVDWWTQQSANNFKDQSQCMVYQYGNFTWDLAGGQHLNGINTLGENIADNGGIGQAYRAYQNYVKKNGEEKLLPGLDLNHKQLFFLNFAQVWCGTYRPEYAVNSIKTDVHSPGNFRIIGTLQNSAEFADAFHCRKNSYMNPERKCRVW
Briefly: Enkephalinase A inhibition, radiometric 3H-Met5-ENK degradation assay with TLC separation. The conditions noted are these: rat brain membrane enzyme, 40 nM 3H-Met5-ENK, 90 min at 37° C.; N.A. = No activity at <10^5 nM. It is filed as biochemical, Sprague-Dawley rats.

In the next experiment the test system is Male CFl mice. In words: Potentiation of the analgesic effects of (DAla2-Met5)-enkephalinamide (DAEAM), tail-flick test. It is filed as in vivo. The conditions noted are these: mouse tail-flick, DAEAM icv, latency 30 min later, dose at which half the test animals displayed analgesia. The source says: Male CFl mice (19-23 g) from Charles River Breeding Labs, Mass., are used (N=10/dose or dose combination). Tail-flick testing is done similar to that of Dewey and Harris, Methods in Narcotic Research, Eds., S. Ehrenpreis and A. Neidle, pp. 101-109, Marcel Dekker, Inc., New York, 1975 using a radiant heat noxious stimulus. Following determination of control latencies (typically 2-3 sec), the mice are first injected (sc or po) with either vehicle or drug and after an appropriate interval injected intracerebroventricularly (icv) with either vehicle (10 μl of saline) or DAEAM according to Haley and McCormick, Br., J. Pharmacol., 12,12 (1957). Tail-flick latencies are re-determined 30 min later, as this has previously been determined to be the time of peak analgesia for DAEAM, a cut-off of 10 sec is employed.

Experimental for enkephalinase A: The following test procedure was utilized to assay the enkephalinase A inhibition of the compounds having structural formula I.
Enzyme activity was separated by taking the brain tissue (minus cerebellum) from Sprague-Dawley rats and homogenizing it in 30 volumes of 50 mM Tris buffer, pH 7.4, using a Brinkmann Polytron. The resulting homogenate is centrifuged at 50,000 xg for 15 min. The pellet, constituting the membrane bound enzyme material, is washed by resuspending it in Tris and re-centrifuging it 4 times.
Following washing, solubilization of the membrane pellet is achieved by incubating it for 45 min at 37° C. in the presence of 15 volumes (based on initial brain weight) of 50 mM Tris-1% Triton X-100 buffer, pH 7.4. […] Material is eluted from the column using a 1 liter linear NaCl gradient running from 0.0 to 0.4 M. Effluent is collected in 7 ml fractions, each of which is assayed for enkephalin degrading activity. Under these conditions Enk'ase A activity is found to elute between 120 and 200 ml. followed by AP activity (260 to 400 ml) and finally by Enk'ase B activity between 420 and 450 ml.
Enkephalin degrading activity is monitored using a radiometric assay. The substrate is ^3 H-Met^5 -ENK (50.1 Ci/mmol, New England Nuclear) diluted in 0.05 M Tris buffer, pH 7.4, such that the final reaction mixture concentration is 40 nM. Total reaction mixture volume including enzyme and substrate is 250 μl. Incubation is carried out for 90 min at 37° C. To stop the reaction, tubes are transferred to a boiling water bath for 15 min.
Assay products are separated from one another using thin layer chromatography. […] Total running time is approximately 17 hours. TLC tanks are gassed with nitrogen prior to starting the run. Following the run, markers are visualized with ninhydrin spray. These spots, along with remaining plate regions, are cut from the plate and the radioactivity corresponding to each monitored using liquid scintillation counting. IC50 's are determined using linear regression techniques.

Take `O=C(O)CCNC(=O)[C@H](Cc1ccccc1)N[C@@H](Cc1ccc(-c2ccccc2)cc1)C(=O)O` [AC, N-[N-[L-1-carboxy-2-(4-phenyl)phenylethyl]-L-phenylalanyl]-β-alanine]: the IC50 against enkephalinase A is 2.5 nM.

The compound `CC(C)C[C@H](N[C@H](Cc1ccccc1)C(=O)O)C(=O)N[C@@H](Cc1ccccc1)C(=O)O` [AG, N-[N-[(D-1-carboxy-2-phenylethyl)]-L-leucyl]-L-phenylalanine] registered an IC50 on enkephalinase A of 12 nM.

As for `CC(C)(C)OC(=O)N[C@@H](CNC(=O)[C@H](Cc1ccccc1)N[C@@H](Cc1ccccc1)C(=O)O)C(=O)O` [AL, N-[N-(L-1-carboxy-2-phenylethyl)-L-phenylalanyl]-S-2-[N[(1,1-dimethylethoxy)carbonyl]amino]-β-alanine], on enkephalinase A, half-maximal inhibition (IC50) required 4.5 nM.

Compound `O=C(O)CCNC(=O)[C@H](Cc1ccccc1)N[C@@H](Cc1ccccc1)C(=O)O` [K, N-[N-[(L-1-carboxy-2-phenylethyl)]-L-phenylalanyl]-β-alanine] yielded an IC50 against enkephalinase A of 15 nM. Besides, in the experiment on Male CFl mice (sc), the “DAEAM Potentiation ED50 (route)” value is reported as 17 mg/k.

As for `CC(C)(C)C(=O)OCOC(=O)CCNC(=O)[C@H](Cc1ccccc1)N[C@@H](Cc1ccccc1)C(=O)OCc1ccccc1` [L], in the experiment with Male CFl mice (po), the “DAEAM Potentiation ED50 (route)” value came to 155 mg/k.

Take `CC(C)(C)C(=O)OCOC(=O)CCNC(=O)[C@H](Cc1ccccc1)N[C@@H](Cc1ccccc1)C(=O)OCOC(=O)C(C)(C)C` [M]: the “DAEAM Potentiation ED50 (route)” value in the experiment with Male CFl mice (po) is on record as 37 mg/k.

As for `O=C(CCNC(=O)[C@H](Cc1ccccc1)N[C@@H](Cc1ccccc1)C(=O)O)OCCOc1ccccc1` [P, N-[N-[(L-1-carboxy-2-phenylethyl)]-L-phenylalanyl]-β-alanine, 2-phenoxyethyl ester], the IC50 against enkephalinase A was found to be 230 nM. In addition, the “DAEAM Potentiation ED50 (route)” value in the experiment on Male CFl mice (po) was 30-60 mg/k.

Values taken from patent US4610816A (Schering Corporation, priority 1981, dated 1986).
